Source: PMC6753678, “Fueling Open Innovation for Malaria Transmission-Blocking Drugs: Hundreds of Molecules Targeting Early Parasite Mosquito Stages” (Frontiers in Microbiology, 2019)
Like-named read-outs stand apart in the source and are kept apart here.

Assays:
[1] = system: 3D7-strain P. falciparum asexual parasites; assay: P. falciparum asexual growth inhibition assay (Pf GIA); type: cell-based, Plasmodium falciparum; conditions: dose response confirmation; read-out: Pf asexual growth inhibition assays IC50
Method in brief: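 3D7 parasites at 0.25% parasitemia, 2% hematocrit were exposed to compounds in dose response for 72 h at 37°C under 5% CO2, 5% O2. Viability read as parasite LDH activity (nitro blue tetrazolium, A650) after freeze-thaw; inhibition scaled to chloroquine (50 μM) and DMSO controls, mean of three biological replicates.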

HepG2 cells [2] = assay: HepG2 cytotoxicity assay
Method in brief: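 Here viability after a 48 h compound incubation (37°C, humidified 5% CO2) is measured by fluorescence and expressed as percent inhibition, with doxorubicin at 50 μM and DMSO as the bounding controls.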

[3] = system: P. berghei ookinete development
[4] = system: P. falciparum late stage (stages IV-V) gametocytes; parameters: method as in Almela et al 2016; conditions: ref Almela et al 2016, read-out: Pf GCT ATP IC50, cited from earlier work
HepG2 cells [5] = conditions: ref Almela et al 2016, cited from earlier work
[6] = system: P. falciparum late stage (stages IV-V) gametocytes; assay: P. falciparum late stage gametocyte ATP depletion assay (Pf GC-ATP); conditions: 1: YES, 0: NO
[7] = unified HepG2 value across the three screens
[8] = P. falciparum late stage gametocyte ATP assay
[9] = HepG2 data listed with Pf GCT ATP screen
[10] = HepG2 cytotoxicity unified across screens, >25 set to 25.00
[11] = P. falciparum late stage gametocyte ATP assay, TCAMS screen
[12] = reported with the Pf GCT ATP screen
[13] = >10-fold selectivity over cytotoxicity

SMILES	Is compound selective in assay? Pf GC-ATP active? [6]	Unified cytotox (HepG2 cells [2]; [7])	IC50 [4, 8]	HepG2 cytoxicity (HepG2 cells [5]; [9])	Unified cytotox (HepG2 cells [2]; [10])	IC50 [4, 11]	HepG2 cytoxicity (HepG2 cells [5]; [12])	Is compound selective in assay? Pf GC-ATP active? [6, 13]	further results
Cn1nc(C(F)(F)F)c(-c2ccc(Br)cc2)c1NC(=O)Cc1ccccc1F [TCMDC-123792]	1 (1: YES)								IC50 [1]: 206 nM; Unified cytotox (HepG2 cells [2]; HepG2 values of the three screens unified): 100.00 µM; IC50 (HepG2 cells [2]; read-out: HepG2 cytotoxicity assay IC50, dose response confirmation): 100000 nM; Is compound selective in assay? Pb ODA active? ([3]; 1: YES, 0: NO): 1 (1: YES); % inhibition, Replicate A ([3]; primary screen at 1 μM, replicate A): 45.62%; % inhibition, Replicate B ([3]; primary screen at 1 μM, replicate B): 73.81%; IC50 ([3]; read-out: Pb ODA IC50, this manuscript): 2120 nM; IC50 ([3]; read-out: Pb Ookinete development assay IC50, dose response confirmation): 2120 nM; IC50 [4]: 1790 nM; HepG2 cytoxicity (Pf GCT ATP screen) (HepG2 cells [5]; HepG2): >25 µM
COc1ccccc1-c1cccc(-c2cccc(NC(=O)c3ccc([N+](=O)[O-])o3)c2)n1 [TCMDC-124800]	0 (0: NO)								Unified cytotox (HepG2 cells [2]; HepG2 cytotoxicity unified across screens, bounds (>) given as plain numbers): 11.47 µM; IC50 ([4]; TCAMS library screen): 1660 nM; HepG2 cytoxicity (Pf GCT ATP screen) (HepG2 cells [5]; HepG2 value reported with Pf GCT ATP screen): 11.47 µM
O=C(Nc1cccc(-c2cccc(-c3ccc(F)cc3)n2)c1)c1ccc([N+](=O)[O-])o1 [TCMDC-124807]	0 (0: NO)	6.94 µM	1530 nM	6.94 µM					
CCN(CC)CCCOC(=O)c1ccc2c(c1)-c1ccc(C(=O)OCCCN(CC)CC)c3cccc-2c13.Cl [TCMDC-125491]	1 (1: YES)	20.00 µM	140 nM	20 µM					
CC(C)c1ccc(NC(=S)NN=Cc2ccccn2)cc1 [TCMDC-125520]	1 (1: YES)	12.80 µM	10 nM	12.8 µM					
O=[N+]([O-])c1ccc(C=NNc2nc(Nc3ccccc3)nc(Nc3ccccc3)n2)o1 [TCMDC-125802]	1 (1: YES)	14.82 µM	1310 nM	14.82 µM					
Cc1cccnc1Nc1nc(-c2ccccn2)cs1 [TCMDC-125846]	1 (1: YES)	3.02 µM	100 nM	3.02 µM					
COc1cccc(CCNCCCCCCNCCc2ccc(Cl)cc2)c1.Cl [TCMDC-131284]	1 (1: YES)	6.10 µM	530 nM	6.1 µM					
CCNC1=NC2=C(CC(C(C)(C)C)CC2)C2(CCC(C(C)(C)C)CC2)S1.Cl (centres unmarked) [TCMDC-131288]	0 (0: NO)	14.30 µM	3000 nM	14.3 µM					
CCN(CC)/C(=N\CCCCCC/N=C(\NC(=N)c1ccc(Cl)cc1)N(CC)CC)NC(=N)c1ccc(Cl)cc1 [TCMDC-131806]	1 (1: YES)	43.60 µM	840 nM	43.6 µM					
SC(=Nc1ccc2c(c1)OCCO2)NN=Cc1ccccn1 [TCMDC-132009]	0 (0: NO)	3.28 µM	830 nM	3.28 µM					
COc1ccc(CCNc2nc(NCc3ccccc3)c3cc(OC)c(OC)cc3n2)cc1OC [TCMDC-132017]	0 (0: NO)	4.58 µM	5600 nM	4.58 µM					
COc1cc2c(c(Cl)c1OC)CCN(C(=O)C(F)(F)F)CC2c1ccccc1 (centres unmarked) [TCMDC-132071]					25.00 µM	1950 nM	>25 µM	1 (1: YES)	
Fc1ccc2[nH]c(-c3ccc(-c4ccc(CNCCN5CCNCC5)cc4)s3)nc2c1.O=C(O)C(F)(F)F [TCMDC-132869]					25.00 µM	530 nM	>25 µM	1 (1: YES)	
Nc1ncc(-c2ccc3nccc(-c4ccncc4)c3c2)cc1S(=O)(=O)N1CCCCC1 [TCMDC-134265]					25.00 µM	2070 nM	>25 µM	1 (1: YES)	
COc1cccc(Nc2c(C(N)=O)cnc3ccc(-c4ccc([S+](C)[O-])cc4)cc23)c1.O=C(O)C(F)(F)F (centres unmarked) [TCMDC-135184]					25.00 µM	1430 nM	>25 µM	1 (1: YES)	

SMILES	Is compound selective in assay? Pf GC-ATP active? [6]	Unified cytotox (HepG2 cells [2]; [7])	IC50 [4, 8]	HepG2 cytoxicity (HepG2 cells [5]; [9])	Unified cytotox (HepG2 cells [2]; [10])	IC50 [4, 11]	HepG2 cytoxicity (HepG2 cells [5]; [12])	Is compound selective in assay? Pf GC-ATP active? [6, 13]	further results
COc1cc(NC(=O)c2sc(-c3ccc(Cl)cc3)cc2NC(=O)c2cccnc2)ccc1OCCN1CCCC1 [TCMDC-135397]					25.00 µM	610 nM	>25 µM	1 (1: YES)	
Cc1ccc(-n2c(C)nc3c(Nc4ccc(-c5ccncc5)cc4)ncnc32)c(C)c1 [TCMDC-136289]					25.00 µM	530 nM	>25 µM	1 (1: YES)	
CS(=O)(=O)c1cccc(-c2cnc3[nH]cc(-c4cccc(CCN)c4)c3c2)c1 [TCMDC-136307]					25.00 µM	470 nM	>25 µM	1 (1: YES)	
CCn1ncc2c(NC3CCOCC3)c(CNC(=O)c3ccnn3C)c(C)nc21 [TCMDC-136560]					25.00 µM	1640 nM	>25 µM	1 (1: YES)	
Cl.Ic1cc(CNC2CCCCC2)ccc1OCc1cccc(COc2ccc(CNC3CCCCC3)cc2I)c1 [TCMDC-137261]					25.00 µM	330 nM	>25 µM	1 (1: YES)	
COc1ccc2nc3cc(Cl)ccc3c(NCCCCCCNc3c4ccc(Cl)cc4nc4ccc(OC)cc34)c2c1.Cl.Cl.Cl.Cl [TCMDC-137503]					25.00 µM	50 nM	>25 µM	1 (1: YES)	
CC(C)CCNC(=N)Nc1ccc(OCCCCCOc2ccc(NC(=N)NCCC(C)C)cc2)cc1 [TCMDC-137614]					25.00 µM	510 nM	>25 µM	1 (1: YES)	
CC(C)CCNC(=N)Nc1ccc(OCCCOc2ccc(NC(=N)NCCC(C)C)cc2)cc1 [TCMDC-137615]					25.00 µM	290 nM	>25 µM	1 (1: YES)	
CC(=NNC(=S)NCCc1ccccn1)c1ccccn1 [TCMDC-137895]					25.00 µM	1490 nM	>25 µM	1 (1: YES)	
COc1cc2nc(NCC3CCN(c4nc(N)c5cc(OC)c(OC)cc5n4)CC3)nc(N)c2cc1OC [TCMDC-138723]					25.00 µM	1420 nM	>25 µM	1 (1: YES)	
CCN(CC)Cc1cc(Nc2c3ccc(Cl)cc3nc3cccc(OC)c23)ccc1O.Cl [TCMDC-139222]					25.00 µM	1000 nM	>25 µM	1 (1: YES)	
N=C(N)Nc1nc(-c2ccc(NC(=O)Nc3cccc(-c4csc(NC(=N)N)n4)c3)cc2)cs1 [TCMDC-139559]					25.00 µM	1430 nM	>25 µM	1 (1: YES)	
CC(Cc1ccc(CNC(=O)NCc2ccc(CC(C)NCCc3cccc(Cl)c3)cc2)cc1)NCCc1cccc(Cl)c1 (centres unmarked) [TCMDC-139648]	0 (0: NO)								Unified cytotox (HepG2 cells [2]; HepG2 cytotoxicity unified across the three screens): 4.18 µM; IC50 ([4]; TCAMS screen comparison): 610 nM; HepG2 cytoxicity (HepG2 cells [5]; value reported with the Pf GCT ATP screen): 4.18 µM
CC(C)CNCc1cccc(-c2cccc(CNCCCN3CCN(C)CC3)c2)c1.O=C(O)C(F)(F)F [TCMDC-140483]					25.00 µM	1560 nM	>25 µM	1 (1: YES)	
CC(C)CNCc1cccc(-c2ccc(CN(CCCN3CCN(C)CC3)C(=O)CCC3CCCC3)cc2)c1.O=C(O)C(F)(F)F [TCMDC-140558]					25.00 µM	700 nM	>25 µM	1 (1: YES)	
